What all share (format): binding
The target of assay [1] is T1, BoSGBPMLG-A (Bacteroides ovatus, UniProt A0AAN3A7L1).
T1 construct: gene BACOVA_02743; residues 24-558, signal peptide and lipidation Cys excluded, N-terminal His6 tag (pHTP1-A57), expressed in E. coli BL21(DE3); NT-647 dye labelled for MST
T1 sequence (A0AAN3A7L1 24-558): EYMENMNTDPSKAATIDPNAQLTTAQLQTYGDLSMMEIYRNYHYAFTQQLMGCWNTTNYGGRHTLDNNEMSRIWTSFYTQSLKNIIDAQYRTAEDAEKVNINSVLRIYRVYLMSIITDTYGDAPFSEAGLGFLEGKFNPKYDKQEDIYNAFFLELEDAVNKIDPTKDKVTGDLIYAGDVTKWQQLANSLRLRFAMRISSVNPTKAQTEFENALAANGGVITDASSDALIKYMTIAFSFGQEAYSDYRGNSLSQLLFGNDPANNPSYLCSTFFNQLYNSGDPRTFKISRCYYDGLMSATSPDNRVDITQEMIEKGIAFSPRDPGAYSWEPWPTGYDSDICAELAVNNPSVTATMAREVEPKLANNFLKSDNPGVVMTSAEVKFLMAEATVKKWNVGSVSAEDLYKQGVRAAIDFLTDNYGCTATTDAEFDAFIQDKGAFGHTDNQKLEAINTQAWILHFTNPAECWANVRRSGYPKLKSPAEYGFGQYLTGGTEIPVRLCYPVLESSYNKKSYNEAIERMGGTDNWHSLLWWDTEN
Put plainly: microscale thermophoresis. The note with it: 50 mM HEPES pH 7.5, 100 mM NaCl, 5 mM CaCl2, 5 mM TCEP, 0.05% Tween 20, 25°C; protein NT-647 labelled; one-site model. For orientation: Microscale thermophoresis detects binding through changes in fluorescence in a small temperature gradient.

Another assay addresses T2, BoSGBPMLG-A-ZB (Bacteroides ovatus, UniProt A0AAN3A7L1).
T2 construct: gene BACOVA_02743; residues 39-558, N-terminal His6 and Zbasic (ZB) tag (pNIC-ZB), expressed in E. coli BL21(DE3); model covers residues 40-559 as printed; 68 kDa
T2 sequence (A0AAN3A7L1 39-558): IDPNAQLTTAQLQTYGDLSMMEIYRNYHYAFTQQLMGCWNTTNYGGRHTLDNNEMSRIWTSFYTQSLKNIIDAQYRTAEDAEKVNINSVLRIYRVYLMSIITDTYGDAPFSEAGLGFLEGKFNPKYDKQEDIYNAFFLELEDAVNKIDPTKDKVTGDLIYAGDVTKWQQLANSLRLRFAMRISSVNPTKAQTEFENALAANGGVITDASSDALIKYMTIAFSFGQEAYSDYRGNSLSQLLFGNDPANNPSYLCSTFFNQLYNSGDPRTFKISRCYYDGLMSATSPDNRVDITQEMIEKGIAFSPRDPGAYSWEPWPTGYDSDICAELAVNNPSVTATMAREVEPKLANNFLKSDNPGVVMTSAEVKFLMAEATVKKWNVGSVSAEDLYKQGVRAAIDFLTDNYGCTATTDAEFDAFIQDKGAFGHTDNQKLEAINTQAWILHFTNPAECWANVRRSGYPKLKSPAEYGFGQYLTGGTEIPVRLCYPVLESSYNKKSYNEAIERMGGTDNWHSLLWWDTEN
Nature of the assay: X-ray crystal structure of the complex, […] Å. The conditions noted are these: co-crystallised after overnight incubation with 0.33 mM ligand, 1 mM MgCl2; pH 5.5.

For assay [2], the target named is T1, BoSGBPMLG-A. Nature of the assay: microscale thermophoresis. The note with it: 50 mM HEPES pH 7.5, 100 mM NaCl, 5 mM CaCl2, 5 mM TCEP, 0.05% Tween 20, 25°C; protein NT-647 labelled; weak, affinity not determinable (ligand solubility).

Consider `OC[C@H]1O[C@@H](O[C@H]2[C@H](O)[C@@H](O)[C@H](O[C@@H]3[C@@H](O)[C@H](O[C@H]4[C@H](O)[C@@H](O)[C@H](O[C@H]5[C@H](O)[C@@H](O)[C@H](O[C@H]6[C@H](O)[C@@H](CO)OC(O)[C@@H]6O)O[C@@H]5CO)O[C@@H]4CO)O[C@H](CO)[C@H]3O)O[C@@H]2CO)[C@H](O)[C@@H](O)[C@@H]1O` (stereo partly drawn) [barley-6], for which the Ka entry at BoSGBPMLG-A [1] was “(1.53 ± 0.23) x 10^5”. The same measure, in the same setting: in the case of `OC[C@H]1O[C@@H](O[C@H]2[C@H](O)[C@@H](O)[C@H](O[C@H]3[C@H](O)[C@@H](O)[C@H](O[C@@H]4[C@@H](O)[C@H](O[C@H]5[C@H](O)[C@@H](O)[C@H](O[C@H]6[C@H](O)[C@@H](O)[C@H](O[C@H]7[C@H](O)[C@@H](CO)OC(O)[C@@H]7O)O[C@@H]6CO)O[C@@H]5CO)O[C@H](CO)[C@H]4O)O[C@@H]3CO)O[C@@H]2CO)[C@H](O)[C@@H](O)[C@@H]1O` (stereo partly drawn) [barley-7] it was “(1.06 ± 0.18) x 10^5”.

`OC[C@H]1O[C@@H](O[C@@H]2[C@@H](O)[C@H](O[C@H]3[C@H](O)[C@@H](O)[C@H](O[C@H]4[C@H](O)[C@@H](O)[C@H](O[C@@H]5[C@@H](O)[C@H](O[C@H]6[C@H](O)[C@@H](O)[C@H](O[C@H]7[C@H](O)[C@@H](O)[C@H](O[C@H]8[C@H](O)[C@@H](CO)OC(O)[C@@H]8O)O[C@@H]7CO)O[C@@H]6CO)O[C@H](CO)[C@H]5O)O[C@@H]4CO)O[C@@H]3CO)O[C@H](CO)[C@H]2O)[C@H](O)[C@@H](O)[C@@H]1O` (stereo partly drawn) [barley-8]: at BoSGBPMLG-A [1], the Ka result is recorded as “(4.29 ± 1.15) x 10^5”. Take `OC[C@H]1O[C@@H](O[C@H]2[C@H](O)[C@@H](O)[C@H](O[C@@H]3[C@@H](O)[C@H](O[C@H]4[C@H](O)[C@@H](O)[C@H](O[C@H]5[C@H](O)[C@@H](O)[C@H](O[C@@H]6[C@@H](O)[C@H](O[C@H]7[C@H](O)[C@@H](O)[C@H](O[C@H]8[C@H](O)[C@@H](O)[C@H](O[C@H]9[C@H](O)[C@@H](CO)OC(O)[C@@H]9O)O[C@@H]8CO)O[C@@H]7CO)O[C@H](CO)[C@H]6O)O[C@@H]5CO)O[C@@H]4CO)O[C@H](CO)[C@H]3O)O[C@@H]2CO)[C@H](O)[C@@H](O)[C@@H]1O` (stereo partly drawn) [barley-9]: the “X-ray crystal structure of the complex, 1.43 Å” value on BoSGBPMLG-A-ZB was “structure of BoSGBPMLG-A in complex with barley-9 (G4G3G4G4G3G4G4G3G)”. Further, on BoSGBPMLG-A [1], the Ka result is “(4.62 ± 1.02) × 10^5”. In the case of `OC[C@H]1O[C@@H](O[C@H]2[C@H](O)[C@@H](O)[C@H](O[C@H]3[C@H](O)[C@@H](O)[C@H](O[C@H]4[C@H](O)[C@@H](O)[C@H](O[C@H]5[C@H](O)[C@@H](O)[C@H](O[C@H]6[C@H](O)[C@@H](O)[C@H](O[C@H]7[C@H](O)[C@@H](O)C(O)O[C@@H]7CO)O[C@@H]6CO)O[C@@H]5CO)O[C@@H]4CO)O[C@@H]3CO)O[C@@H]2CO)[C@H](O)[C@@H](O)[C@@H]1O` (stereo partly drawn) [cello-7], the microscale thermophoresis result on BoSGBPMLG-A [2] is “For the more weakly binding cello-7, it was not possible to determine the affinity”.

Values taken from paper PMC8612152, “Mapping Molecular Recognition of β1,3-1,4-Glucans by a Surface Glycan-Binding Protein from the Human Gut Symbiont Bacteroides ovatus” (Microbiology Spectrum, 2021).
